# Patent US9480703B2, “Method and composition of glycosaminoglycans in sickle cell and vascular disorders” (priority 2013, dated 2016)
# Assays:
# NFkB = assay: NF-KB luciferase reporter assay; assay type: cell-based; conditions: NF-KB Luciferase Reporter Hela Stable cells, 1 μL, 10 μL and 100 μL, two hours
# Protocol: The Luciferase Assay System was purchased from Promega (Madison, Wis., USA). NF-KB Luciferase Reporter Hela Stable cells were seeded at 10^4 cells/well in 96-well plate and incubated for 24 hours. Then, growth media was removed. Next, SNACH, tinzaparin or Poly-Arginine NPs were added at concentrations of 1 μL, 10 μL and 100 μL in triplicate and incubated at 36° C. for two hours. After two hours, cells were washed with PBS. Lysis buffer was prepared following a generic protocol. 0.5 mL of lysis buffer was mixed with 2 mL of PBS. Next, the lysis buffer's solution was added to each well. Afterward, the 96-well plate was rocked several times using a shaker. Cells and liquid were collected for centrifugation at 1200×g for 5 minutes at 4° C. The supernatant was removed and stored at −80° C. One week later, the 96-well plate was placed in the luminometer containing 20 μL of lysis buffer and 100 μL of luciferase assay reagent/well. The light was measured for a period of 10 seconds with a delay time of 2 seconds.
# ICAM-1 = ICAM-1 levels in plasma of transgenic sickle cell mice; assay type: in vivo; conditions: daily subcutaneous treatment for 7 days, LMWH 5 mg/kg, SNACH (NACH) 20 mg/kg, PSI-14 10 mg/kg
# From the text: (§1) Transgenic SCD model mice (stock #013071) of aged-matched female were obtained from The Jackson Laboratory (Bar Harbor, Me.) in addition to wild mice as controls. Genetically, transgenic mice were designed with the human hemoglobin gamma (^Ay) gene and the human sickle hemoglobin beta (β^S) gene replacing the endogenous mouse major and minor β-globin.
# (§2) Each category of mice (wild or SCD) was divided into three groups. Basal blood samples were taken by retro orbital venipuncture under anesthesia with citrated micro-hematocrit tubes, before the treatment administration. The three groups in each category were treated subcutaneously with LMWH (5 mg/kg), SNACH (20 mg/kg), and PSI (10 mg/kg). Compounds were administered daily for 7 days, and follow up blood samples were drawn daily after 1 hour of treatment administration. Immediately after collection, blood was centrifuged at 800×g for 5 minutes and plasma was collected and stored at −80° C.
# Levels of adhesion biomarker ICAM-1 were measured in mice plasma using the Bio-Plex 200 systems. Assay kit (171-304080M) was obtained from Bio-Rad (Hercules, Calif.) and the experiment was conducted following the provided instructions. The assay principle is based on the concept of sandwich ELISA where magnetic beads are covalently bound to the capture antibodies that react to the targeted biomarker. […]
# [1] = tested on: endogenous pathway of coagulation; assay: aPTT in citrated plasma; conditions: SNACH 1-10 uM
# Protocol: To 0.1 ml of citrated plasma 0.1 ml of human placenta lipid is added and the mixture is incubated for 2 min at 37° C. The coagulation process is initiated by the addition of 0.1 ml 25 mM calcium chloride and the time to clot formation is determined. The aPTT measures effects on the endogenous pathway of coagulation.
# aPTT in dosed mice = assay type: in vivo; conditions: subcutaneous, SNACH 0.1-40 mg/Kg, tinzaparin 0.1-5.0 mg/Kg
# [2] = tested on: platelet/fibrin clot dynamics; assay: Thrombelastography (TEG), cup with or without HUVEC coating; conditions: re-calcified citrated whole blood
# Protocol: Thrombelastography (TEG) was performed in either citrated whole blood after re-calcification. The blood samples were mixed with 3.8% tri-sodium citrate solution (one part citrate solution to 9 parts blood) as anticoagulant. The citrated whole blood was re-calcified by adding 0.4 ml isotonic calcium chloride solution. An aliquot of 0.36 ml of the re-calcified whole blood was transferred to the pre-warmed cup (Coated with monolayer of HUVEC or not) of the thrombelastograph. The following measurements were the standard variables of TEG: (i) Reaction time (R): the time from sample placement in the cup until onset of clotting (defined as amplitude of 1 mm). This represents the rate of initial fibrin formation; (ii) Maximum amplitude (MA): greatest amplitude on the TEG trace, wherein MA represents the absolute strength of the fibrin clot and is a direct function of the maximum dynamic strength of fibrin and platelets.
# Bleeding time in mice = assay type: in vivo
# [3] = tested on: adhesion of sickle RBCs to endothelial cells (HUVECs); assay: Static adhesion assay of PKH67-labeled sickle RBCs on TNF-α-treated HUVECs; assay type: cell-based, human; conditions: HUVECs treated with TNF-α 10 ng/ml; PSI 10 μg/ml, LMWH & SNACH 40 μg/ml
# Protocol: Using gelatin-coated culture flasks, HUVEC were cultured in EGM complete media supplemented with 2 ml bovine brain extract (BBE), and passaged when 80% confluent using trypsin/EDTA solution according to the manufacturers' instructions. Cells from passages 2 to 6 were used for adhesion assay experiments. Cells were sub-cultured in a 96-well plate pre-coated with collagen with a number of 20,000 cells per well, and were left for 24 hours at 37° C. in a CO2 (5%) incubator to form a confluent monolayer.
# Normal and sickle blood samples were collected in EDTA tubes from the antecubital vein of healthy volunteers and homozygous sickle cell patients, respectively. […] Packed RBCs were washed once with PBS, and counted using a CBC analyzer. […]
# After HUVECs formed a confluent monolayer in the plate's wells, the experiment was designed to include five groups in […]: medium only (negative control), TNF-α only (positive control), or TNF-α with the treatment compounds: LMWH, SNACH, and PSI. […] Non-adherent RBCs were removed with PBS wash, and then 150 μl of complete medium were added for plate reading.
# In order to quantitate endothelial-adherent RBCs by the fluorescence plate reader, serial two-fold dilutions of PKH67-labeled RBC samples were prepared from 2×10^6 to 0.16×10^6 RBCs/well. […] fluorescence was detectable with as few as 10^4 RBCs. […]
# factor Xa = assay: Anti-Xa in dosed mice; assay type: in vivo; conditions: subcutaneous, SNACH 0.1-40 mg/Kg, tinzaparin 0.1-5.0 mg/Kg
# P-selectin = P-selectin levels in plasma of transgenic sickle cell mice; assay type: in vivo; conditions: daily subcutaneous treatment for 7 days, LMWH 5 mg/kg, SNACH (NACH) 20 mg/kg
# From the text: as §1, §2
# [4] = Mortality of treated SCD mice; assay type: in vivo; conditions: LMWH 5 mg/kg daily, % of the group's mice
# Protocol: as §2
substance,measurement,setting,value
tinzaparin [LMWH],NFkB activation,NFkB,significant concentration-dependent suppression of NFkB activation
same,ICAM-1 levels in plasma at multiple time points,ICAM-1,showed a decrease only on the first and third days of treatment
same,effect on aPTT,[1],concentration dependent increase in aPTT
same,aPTT,aPTT in dosed mice,increase in aPTT
same,platelet/fibrin clot dynamics (TEG),[2]; absence of endothelial cell coating of cup,suppression of platelet/fibrin clot dynamics
same,platelet/fibrin clot dynamics (TEG),[2]; presence of endothelial cell (HUVEC) coating of cup,suppression of platelet/fibrin clot dynamics
same,bleeding time,"Bleeding time in mice; subcutaneous, SNACH 0.1-40 mg/Kg, tinzaparin 0.1-5.0 mg/Kg",maximal increase in bleeding time
same,finding at site of injection,Bleeding time in mice; tinzaparin 0.1-5.0 mg/Kg subcutaneously,browsing at site of injection
same,adhesion of sickle RBCs to the endothelial layer compared to TNF-α only (positive control),[3],did not show a decrease in the adhesion that could be considered statistically significant
same,anti-Xa,factor Xa,inhibition of factor Xa
same,decrease of P-selectin levels in plasma,P-selectin,~15%
same,mortality rate (bleeding complications),[4],75%
